Where “and” joins values, the source holds several entries; their conditions need not be identical. Identical values can stand only once.
Columns and labels:
[1] = mn = molality of the nth substance listed, in mol/kg; details: 101 kPa, Liquid
[2] = 101 kPa, Liquid

CCCCCCCCn1cc[n+](C)c1.[Br-] [1-methyl-3-octylimidazolium bromide] + C[S+](C)[O-]
[1]
Details	mass density [kg/m3]
293.15 K, m1 = 0.00222	1100.28
293.15 K, m1 = 0.00411	1100.33
293.15 K, m1 = 0.00639	1100.39
293.15 K, m1 = 0.00868	1100.45
293.15 K, m1 = 0.01098	1100.51
293.15 K, m1 = 0.01287	1100.56
293.15 K, m1 = 0.0156	1100.63
293.15 K, m1 = 0.01754	1100.68
293.15 K, m1 = 0.01986	1100.74
293.15 K, m1 = 0.0222	1100.8
303.15 K, m1 = 0.00254	1090.41
303.15 K, m1 = 0.00588	1090.5
303.15 K, m1 = 0.00888	1090.58
303.15 K, m1 = 0.01151	1090.65
303.15 K, m1 = 0.01491	1090.74
303.15 K, m1 = 0.01758	1090.81
303.15 K, m1 = 0.02064	1090.89
303.15 K, m1 = 0.02333	1090.96
303.15 K, m1 = 0.02681	1091.05
303.15 K, m1 = 0.03031	1091.14
308.15 K, m1 = 0.00216	1085.43
308.15 K, m1 = 0.00471	1085.5
308.15 K, m1 = 0.00692	1085.56
308.15 K, m1 = 0.00913	1085.62
308.15 K, m1 = 0.01398	1085.75
308.15 K, m1 = 0.01624	1085.81
308.15 K, m1 = 0.01888	1085.88
308.15 K, m1 = 0.02155	1085.95
308.15 K, m1 = 0.02348	1086
308.15 K, m1 = 0.02616	1086.07
313.15 K, m1 = 0.00623	1080.57
313.15 K, m1 = 0.01004	1080.67
313.15 K, m1 = 0.01351	1080.76
313.15 K, m1 = 0.01667	1080.84
313.15 K, m1 = 0.01987	1080.92
313.15 K, m1 = 0.02275	1080.99
313.15 K, m1 = 0.02686	1081.09
313.15 K, m1 = 0.02946	1081.15
313.15 K, m1 = 0.03287	1081.23
313.15 K, m1 = 0.03631	1081.31

CCCCn1cc[n+](C)c1.[Br-] [1-butyl-3-methylimidazolium bromide] + C[S+](C)[O-]
[1]
Details	mass density [kg/m3]
293.15 K, m1 = 0.00417	1100.42
293.15 K, m1 = 0.00643	1100.53
293.15 K, m1 = 0.00951	1100.68
293.15 K, m1 = 0.01236	1100.82
293.15 K, m1 = 0.015	1100.95
293.15 K, m1 = 0.01784	1101.09
293.15 K, m1 = 0.02066	1101.23
293.15 K, m1 = 0.02307	1101.35
293.15 K, m1 = 0.02628	1101.51
293.15 K, m1 = 0.02848	1101.62
303.15 K, m1 = 0.00497	1090.6
303.15 K, m1 = 0.00823	1090.76
303.15 K, m1 = 0.01126	1090.91
303.15 K, m1 = 0.01409	1091.05
303.15 K, m1 = 0.01689	1091.19
303.15 K, m1 = 0.02008	1091.35
303.15 K, m1 = 0.02326	1091.51
303.15 K, m1 = 0.02642	1091.67
303.15 K, m1 = 0.02917	1091.82
303.15 K, m1 = 0.03153	1091.94
308.15 K, m1 = 0.00514	1085.66
308.15 K, m1 = 0.00817	1085.81
308.15 K, m1 = 0.01139	1085.97
308.15 K, m1 = 0.01418	1086.11
308.15 K, m1 = 0.01696	1086.25
308.15 K, m1 = 0.01992	1086.41
308.15 K, m1 = 0.02347	1086.59
308.15 K, m1 = 0.0264	1086.74
308.15 K, m1 = 0.02914	1086.88
308.15 K, m1 = 0.03167	1087.01
313.15 K, m1 = 0.00489	1080.7
313.15 K, m1 = 0.00769	1080.83
313.15 K, m1 = 0.01069	1080.98
313.15 K, m1 = 0.01325	1081.11
313.15 K, m1 = 0.01542	1081.23
313.15 K, m1 = 0.01934	1081.43
313.15 K, m1 = 0.02264	1081.6
313.15 K, m1 = 0.02575	1081.76
313.15 K, m1 = 0.02845	1081.9
313.15 K, m1 = 0.03154	1082.06

C[S+](C)[O-] [dimethyl sulfoxide] + CCCCCCCCn1cc[n+](C)c1.[Br-]
[1], m2 = 0
Details	mass density [kg/m3]
293.15 K	1100.22
303.15 K	1090.34
308.15 K	1085.41
313.15 K	1080.43

C[S+](C)[O-] [dimethyl sulfoxide] + CCCCCCCCCCCCn1cc[n+](C)c1.[Br-]
[1], m2 = 0
Details	mass density [kg/m3]
293.15 K	1100.22
303.15 K	1090.38
308.15 K	1085.41
313.15 K	1080.47

C[S+](C)[O-] [dimethyl sulfoxide]
[2]
Details	mass density
293.15 K	1100.22 kg/m3
303.15 K	1090.37 kg/m3 [middle of 4 runs]
308.15 K	1085.41 kg/m3 and 1085.42 kg/m3
313.15 K	1080.45 kg/m3 and 1080.43 kg/m3 and 1080.47 kg/m3

CCCCCCCCCCCCn1cc[n+](C)c1.[Br-] [1-dodecyl-3-methylimidazolium bromide] + C[S+](C)[O-]
[1]
Details	mass density [kg/m3]
293.15 K, m1 = 0.00397	1100.23
293.15 K, m1 = 0.00623	1100.24
293.15 K, m1 = 0.00818	1100.25
293.15 K, m1 = 0.01037	1100.26
293.15 K, m1 = 0.01216	1100.26
293.15 K, m1 = 0.01421	1100.27
293.15 K, m1 = 0.01656	1100.28
293.15 K, m1 = 0.01857	1100.29
293.15 K, m1 = 0.02122	1100.3
293.15 K, m1 = 0.02403	1100.31
303.15 K, m1 = 0.00371	1090.4
303.15 K, m1 = 0.00614	1090.4
303.15 K, m1 = 0.00792	1090.41
303.15 K, m1 = 0.00994	1090.42
303.15 K, m1 = 0.0118	1090.43
303.15 K, m1 = 0.01399	1090.44
303.15 K, m1 = 0.01604	1090.45
303.15 K, m1 = 0.01817	1090.46
303.15 K, m1 = 0.01986	1090.47
303.15 K, m1 = 0.02211	1090.48
308.15 K, m1 = 0.00436	1085.43
308.15 K, m1 = 0.00683	1085.43
308.15 K, m1 = 0.00903	1085.45
308.15 K, m1 = 0.01149	1085.46
308.15 K, m1 = 0.01349	1085.47
308.15 K, m1 = 0.01606	1085.48
308.15 K, m1 = 0.01812	1085.49
308.15 K, m1 = 0.02147	1085.51
308.15 K, m1 = 0.02348	1085.52
308.15 K, m1 = 0.02922	1085.55
313.15 K, m1 = 0.00453	1080.48
313.15 K, m1 = 0.00685	1080.5
313.15 K, m1 = 0.00907	1080.51
313.15 K, m1 = 0.01123	1080.52
313.15 K, m1 = 0.01315	1080.53
313.15 K, m1 = 0.01625	1080.55
313.15 K, m1 = 0.01812	1080.56
313.15 K, m1 = 0.02054	1080.57
313.15 K, m1 = 0.02269	1080.59

C[S+](C)[O-] [dimethyl sulfoxide] + CCCCCCCCCCn1cc[n+](C)c1.[Br-]
[1], m2 = 0
Details	mass density [kg/m3]
293.15 K	1100.22
303.15 K	1090.37
308.15 K	1085.42
313.15 K	1080.45

CCCCCCCCCCn1cc[n+](C)c1.[Br-] [1-decyl-3-methylimidazolium bromide] + C[S+](C)[O-]
[1]
Details	mass density [kg/m3]
293.15 K, m1 = 0.00402	1100.27
293.15 K, m1 = 0.00649	1100.3
293.15 K, m1 = 0.00933	1100.34
293.15 K, m1 = 0.01163	1100.38
293.15 K, m1 = 0.0141	1100.41
293.15 K, m1 = 0.0167	1100.45
293.15 K, m1 = 0.01877	1100.49
293.15 K, m1 = 0.02117	1100.53
293.15 K, m1 = 0.02341	1100.56
293.15 K, m1 = 0.02766	1100.63
303.15 K, m1 = 0.00542	1090.45
303.15 K, m1 = 0.00729	1090.48
303.15 K, m1 = 0.00969	1090.52
303.15 K, m1 = 0.01151	1090.55
303.15 K, m1 = 0.01339	1090.58
303.15 K, m1 = 0.01545	1090.61
303.15 K, m1 = 0.01741	1090.65
303.15 K, m1 = 0.01809	1090.66
303.15 K, m1 = 0.01996	1090.69
308.15 K, m1 = 0.00501	1085.49
308.15 K, m1 = 0.00676	1085.52
308.15 K, m1 = 0.01153	1085.59
308.15 K, m1 = 0.01415	1085.64
308.15 K, m1 = 0.01624	1085.68
308.15 K, m1 = 0.0184	1085.72
308.15 K, m1 = 0.02101	1085.76
308.15 K, m1 = 0.0233	1085.8
313.15 K, m1 = 0.00484	1080.52
313.15 K, m1 = 0.0071	1080.56
313.15 K, m1 = 0.00963	1080.6
313.15 K, m1 = 0.01229	1080.65
313.15 K, m1 = 0.01489	1080.69
313.15 K, m1 = 0.01739	1080.74
313.15 K, m1 = 0.0195	1080.78
313.15 K, m1 = 0.02205	1080.82
313.15 K, m1 = 0.02449	1080.87

C[S+](C)[O-] [dimethyl sulfoxide] + CCCCn1cc[n+](C)c1.[Br-]
[1], m2 = 0
Details	mass density [kg/m3]
293.15 K	1100.22
303.15 K	1090.36
308.15 K	1085.41
313.15 K	1080.45
